# Where a name gives a salt, the structure may show the parent alone.
# What was measured:
# CDK4/CyclinD3 = biological target: T1, CDK4/CyclinD3 (Homo sapiens, UniProt P11802); test: In-vitro kinase inhibitory activity, CDK4/CyclinD3 (Caliper EZ Reader II mobility shift); assay type: biochemical; settings: CDK4/CyclinD3 20 nM, ATP 2 mM, Peptide 1 μM, 27° C., 180 min; read-out: IC50 (half maximal inhibitory concentration, nM) CDK4
# T1 construct: purchased Wuxi Biortus Biosciences Co. Ltd
# Method: The final volume for assay was 16 μL, and the reaction temperature was 27° C. CDK4/CyclinD3 was produced by Wuxi Biortus Biosciences Co. Ltd. The concentration of the kinase was determined by the results of the optimization experiment. The kinase was diluted with an assay buffer (50 mM Tris HCl pH 8.0, 0.01% Tween 20, 50 μg/mL BSA, and 5 mM MgCl2) to obtain a corresponding kinase solution (2.4× concentration). The compound was dissolved in dimethyl sulfoxide (DMSO) to reach a concentration of 10 mM. […] 2 μL of the test compound solution was mixed with 5 μL of the kinase solution, and the mixture was incubated for 10 min. 5 μL of the mixed solution of the polypeptide substrate and ATP was then added. The mixture was incubated at 27° C. for 180 min, and then the reaction was terminated by adding 4 μL of EDTA with a concentration of 120 mM to each sample. […] Each assay was conducted in at least two replicates.
# (§1) The final concentrations of the reagents in the assay were as follows. […] The reaction mixture was analyzed on a Caliper EZ Reader II by electrophoretic separation of the fluorescent substrate and the phosphorylated product. Data were calculated by using GraphPad Prism version 6.0 and IC50 values were obtained by adjusting the non-linear regression models of the dose response curves.
# CDK6/CyclinD3 = biological target: T2, CDK6/CyclinD3 (Homo sapiens, UniProt Q00534); test: In-vitro kinase inhibitory activity, CDK6/CyclinD3 (Caliper EZ Reader II mobility shift); assay type: biochemical; settings: CDK6/CyclinD3 20 nM, ATP 2 mM, Peptide 1 μM, 27° C., 120 min; read-out: IC50 (half maximal inhibitory concentration, nM) CDK6
# T2 construct: purchased Wuxi Biortus Biosciences Co. Ltd
# T2 sequence (Q00534 whole entry, species assumed): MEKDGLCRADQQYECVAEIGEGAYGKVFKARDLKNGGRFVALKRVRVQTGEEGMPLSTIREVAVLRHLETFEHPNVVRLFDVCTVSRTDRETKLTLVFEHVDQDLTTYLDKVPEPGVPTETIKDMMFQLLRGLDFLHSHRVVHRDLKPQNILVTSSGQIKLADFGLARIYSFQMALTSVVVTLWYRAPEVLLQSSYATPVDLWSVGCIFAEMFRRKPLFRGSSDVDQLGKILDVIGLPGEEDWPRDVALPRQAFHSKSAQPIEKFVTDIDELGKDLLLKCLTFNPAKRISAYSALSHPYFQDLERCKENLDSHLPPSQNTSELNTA
# T2 sequence (P30281 whole entry partner, species assumed): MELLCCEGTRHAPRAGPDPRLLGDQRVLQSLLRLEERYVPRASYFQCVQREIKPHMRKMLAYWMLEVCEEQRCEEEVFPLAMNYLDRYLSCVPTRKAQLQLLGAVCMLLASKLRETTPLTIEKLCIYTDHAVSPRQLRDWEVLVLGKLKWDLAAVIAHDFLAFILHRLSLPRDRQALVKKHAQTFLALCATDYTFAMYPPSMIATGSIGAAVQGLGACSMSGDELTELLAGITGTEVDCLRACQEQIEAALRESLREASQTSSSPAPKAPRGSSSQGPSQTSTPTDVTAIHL
# Method: The final volume for assay was 16 μL, and the reaction temperature was 27° C. […] The compound was dissolved in dimethyl sulfoxide (DMSO) to reach a concentration of 10 mM. […] 2 μL of the test compound solution was mixed with 5 μL of the kinase solution, and the mixture was incubated for 10 min. 5 μL of the mixed solution of the polypeptide substrate and ATP was then added. The mixture was incubated at 27° C. for 120 min, and then the reaction was terminated by adding 4 μL of EDTA with a concentration of 120 mM to each sample. […] Each assay was conducted in at least two replicates.
# as §1
# CDK9 = CDK9 (Homo sapiens, UniProt P50750); test: In-vitro kinase inhibitory activity, CDK9 (selectivity); assay type: biochemical; settings: read-out: IC50 (half maximal inhibitory concentration, nM) CDK9
# Sequence of CDK9 (P50750 whole entry, species assumed): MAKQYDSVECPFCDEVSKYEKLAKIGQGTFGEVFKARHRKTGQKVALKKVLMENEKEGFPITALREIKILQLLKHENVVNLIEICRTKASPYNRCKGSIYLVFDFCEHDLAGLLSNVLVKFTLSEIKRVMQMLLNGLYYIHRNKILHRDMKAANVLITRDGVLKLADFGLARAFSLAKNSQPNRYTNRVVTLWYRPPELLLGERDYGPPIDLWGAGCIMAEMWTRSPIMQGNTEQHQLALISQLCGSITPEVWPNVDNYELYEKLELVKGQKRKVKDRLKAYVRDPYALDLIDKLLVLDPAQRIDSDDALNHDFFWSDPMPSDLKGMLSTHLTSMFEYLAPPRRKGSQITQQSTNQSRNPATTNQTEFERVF
# Sequence of CDK9 (O60563 whole entry partner, species assumed): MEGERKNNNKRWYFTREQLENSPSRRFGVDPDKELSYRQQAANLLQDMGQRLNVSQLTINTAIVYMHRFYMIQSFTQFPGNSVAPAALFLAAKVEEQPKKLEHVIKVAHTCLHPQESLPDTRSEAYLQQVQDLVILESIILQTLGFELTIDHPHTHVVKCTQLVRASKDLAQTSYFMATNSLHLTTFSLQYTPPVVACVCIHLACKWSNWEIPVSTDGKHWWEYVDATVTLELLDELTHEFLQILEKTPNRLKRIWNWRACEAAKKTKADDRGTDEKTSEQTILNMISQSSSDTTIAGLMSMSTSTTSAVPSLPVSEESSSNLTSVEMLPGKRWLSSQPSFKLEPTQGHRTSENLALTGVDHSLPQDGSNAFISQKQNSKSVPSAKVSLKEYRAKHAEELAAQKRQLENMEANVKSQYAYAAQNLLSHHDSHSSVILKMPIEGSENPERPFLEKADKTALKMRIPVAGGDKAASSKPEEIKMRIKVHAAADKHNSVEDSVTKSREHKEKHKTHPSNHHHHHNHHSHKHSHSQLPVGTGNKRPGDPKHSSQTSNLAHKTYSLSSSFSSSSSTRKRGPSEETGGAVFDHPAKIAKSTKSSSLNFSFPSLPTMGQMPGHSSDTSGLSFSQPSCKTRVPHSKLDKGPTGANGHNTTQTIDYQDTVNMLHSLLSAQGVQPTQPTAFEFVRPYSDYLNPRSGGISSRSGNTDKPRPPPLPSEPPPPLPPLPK
# [1] = test system: human colon cancer COLO205 cells; test: Growth inhibition of tumor cells cultured in vitro, CellTiter-Glo, COLO205; assay type: cell-based; settings: COLO205, 72 h, CellTiter-Glo
# Source text: (§2) Test drugs: Compounds of the present disclosure. Tumor cell strains: human colon cancer COLO205 cells and human breast cancer MCF-7 cells.
# (§3) The growth inhibitory effects on human tumor cells COLO205 and MCF-7 cultured in vitro were observed by using a CellTiter-Glo Luminescent Cell Viability Assay Kit (Promega, Cat. No. G7572). Human tumor cells COLO205 and MCF-7 were both purchased from the American Type Culture Collection.
# (§4) CellTiter-Glo Luminescent Cell Viability Assay: The previous cell culture medium was discarded, and the tumor cells were rinsed twice with PBS. An appropriate amount of trypsin (VWR, Cat. No. 0458-25G) was added to digest the tumor cells until most of the cells turned round and were detached from the wall. The trypsin digestion was terminated by adding an RPMI-1640 medium (COLO205; Gibco, Cat. No. A10491-01) containing 10% fetal bovine serum (Hyclone, Cat. No. SV30160.03) and MEM medium (MCF-7; Gibco, Cat. No. 10370-021) containing 10% fetal bovine serum and 0.01 mg/mL insulin, and the cells were gently pipetted with a pipette to completely suspend the tumor cells. After cell counting, a tumor cell suspension was prepared using a complete culture medium and the final concentration was 6.7×10^4 cells/mL. 90 μL of the tumor cell suspension was seeded in each well of a 96-well culture plate (6000 cells/well). The plate was then placed in an incubator with 5% CO2 at 37° C. and incubated for 24 h. A test drug was added by using an Agilent Bravo Automated Liquid Handling Platform, and 10 μL of the sample was added in each well. The assay was conducted in triplicate for each group. A compound of the present disclosure was dissolved in DMSO (BioRoYee, Cat. No. AF0231), and then the resulting solution was diluted to 10 μM/L, 3.33 μM/L, 1.11 μM/L, 0.37 μM/L, 0.123 μM/L, 0.041 μM/L, 0.0137 μM/L, 0.0046 μM/L, and 0.0015 μM/L with the culture medium. The concentration of DMSO was lower than 0.1%, and a culture medium containing 0.1% DMSO was added to the well which was set as a vehicle control group. The 96-well plate was placed in an incubator with 5% CO2 at 37° C. and incubated for 72 h. The 96-well plate to be tested was equilibrated at room temperature for 30 min, and 100 μL of Cell Titer-Glo reagent was added to each well. The contents of each well were mixed in an orbital shaker for 2 min to induce cell lysis, and the plate was incubated at room temperature for 10 min to achieve a constant value of fluorescent intensity. Finally, the chemiluminescence intensity was detected by TECAN M1000. Data were processed with Graphpad Prism 6.0 software. The growth curve of the cells was plotted. The cell growth inhibition rate of a drug was calculated, and the half maximal inhibitory concentration (IC50) of the drug was determined.
# [2] = test system: human breast cancer MCF-7 cells; test: Growth inhibition of tumor cells cultured in vitro, CellTiter-Glo, MCF-7; assay type: cell-based; settings: for IC50: MCF-7, 72 h, CellTiter-Glo; for inhibitory effect on human breast cancer MCF-7 cells (in words): summary of the table
# Source text: as §2, §3, §4
# CDK2 = CDK2 (Homo sapiens, UniProt P24941); test: In-vitro kinase inhibitory activity, CDK2 (selectivity); assay type: biochemical; settings: read-out: IC50 (half maximal inhibitory concentration, nM) CDK2
# T1 sequence (P11802 whole entry, species assumed): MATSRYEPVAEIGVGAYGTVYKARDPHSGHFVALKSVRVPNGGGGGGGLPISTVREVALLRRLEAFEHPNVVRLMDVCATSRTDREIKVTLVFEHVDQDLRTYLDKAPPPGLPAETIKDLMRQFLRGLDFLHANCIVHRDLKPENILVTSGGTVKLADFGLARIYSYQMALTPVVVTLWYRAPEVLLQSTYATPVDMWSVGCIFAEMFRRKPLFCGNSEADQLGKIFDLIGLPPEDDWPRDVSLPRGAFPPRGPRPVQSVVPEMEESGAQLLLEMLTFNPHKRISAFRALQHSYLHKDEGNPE
# T1 sequence (P30281 whole entry partner, species assumed): as the sequence (P30281 whole entry partner, species assumed) above
smiles,measurement,setting,value
"COc1c(N2CCN(CCN3CCN(c4ccc(Nc5ncc6c(C)c(C(C)=O)c(=O)n(C7CCCC7)c6n5)nc4)CC3)CC2)ccc2c1CN(C1CCC(=O)NC1=O)C2=O (centres unmarked) [Compound 19, 3-(5-(4-(2-(4-(6-((6-acetyl-8-cyclopentyl-5-methyl-7-oxo-7,8-dihydropyrido[2,3-d]pyrimidin-2-yl)amino)pyridin-3-yl)piperazin-1-yl)ethyl)piperazin-1-yl)-4-methoxy-1-oxoisoindolin-2-yl)piperidine-2,6-dione dihydrochloride]",IC50,CDK4/CyclinD3,54.8 nM
same,IC50,CDK6/CyclinD3,20.5 nM
same,IC50,CDK9,5610 nM
same,IC50,[1]; dihydrochloride,43.2 nM
same,IC50,[2],> 10000 nM
"CC(=O)c1c(C)c2cnc(Nc3ccc(N4CCN(CCN5CCC(CC6CCN(c7ccc8c(c7)CN(C7CCC(=O)NC7=O)C8=O)CC6)CC5)CC4)cn3)nc2n(C2CCCC2)c1=O (centres unmarked) [Compound 10, 3-(5-(4-((1-(2-(4-(6-((6-acetyl-8-cyclopentyl-5-methyl-7-oxo-7,8-dihydropyrido[2,3-d]pyrimidin-2-yl)amino)pyridin-3-yl)piperazin-1-yl)ethyl)piperidin-4-yl)methyl)piperidin-1-yl)-1-oxoisoindolin-2-yl)piperidine-2,6-dione]",IC50,CDK4/CyclinD3,11.5 nM
same,IC50,CDK6/CyclinD3,3.21 nM
same,IC50,CDK2,> 10000 nM
same,IC50,CDK9,4150 nM
"COc1cc(N2CCN(CCN3CCN(c4ccc(Nc5ncc6c(C)c(C(C)=O)c(=O)n(C7CCCC7)c6n5)nc4)CC3)CC2)cc2c1C(=O)N(C1CCC(=O)NC1=O)C2 (centres unmarked) [Compound 16, 3-(5-(4-(2-(4-(6-((6-acetyl-8-cyclopentyl-5-methyl-7-oxo-7,8-dihydropyrido[2,3-d]pyrimidin-2-yl)amino)pyridin-3-yl)piperazin-1-yl)ethyl)piperazin-1-yl)-7-methoxy-1-oxoisoindolin-2-yl)piperidine-2,6-dione]",IC50,CDK4/CyclinD3,60.1 nM
same,IC50,CDK6/CyclinD3,26.4 nM
same,IC50,CDK9,> 10000 nM
same,IC50,"[1]; Homo sapiens, COLO 205, 72 h",66.9 nM
same,IC50,"[2]; Homo sapiens, MCF7, 72 h",> 10000 nM
"CC(=O)c1c(C)c2cnc(Nc3ccc(N4CCN(CCN5CCN(c6ccc7c(c6Cl)CN(C6CCC(=O)NC6=O)C7=O)CC5)CC4)cn3)nc2n(C2CCCC2)c1=O (centres unmarked) [Compound 20, 3-(5-(4-(2-(4-(6-((6-acetyl-8-cyclopentyl-5-methyl-7-oxo-7,8-dihydropyrido[2,3-d]pyrimidin-2-yl)amino)pyridin-3-yl)piperazin-1-yl)ethyl)piperazin-1-yl)-4-chloro-1-oxoisoindolin-2-yl)piperidine-2,6-dione]",IC50,CDK4/CyclinD3,44.6 nM
same,IC50,CDK6/CyclinD3,19.6 nM
same,IC50,CDK2,> 10000 nM
same,IC50,CDK9,3760 nM
same,IC50,"[1]; Homo sapiens, COLO 205, 72 h",78.3 nM
same,IC50,"[2]; Homo sapiens, MCF7, 72 h",> 10000 nM
"CC(=O)c1c(C)c2cnc(Nc3ccc(N4CCN(CCN5CCC(CN6CCN(c7c(F)cc8c(c7F)CN(C7CCC(=O)NC7=O)C8=O)CC6)CC5)CC4)cn3)nc2n(C2CCCC2)c1=O (centres unmarked) [Compound 34, 3-(5-(4-((1-(2-(4-(6-((6-acetyl-8-cyclopentyl-5-methyl-7-oxo-7,8-dihydropyrido[2,3-d]pyrimidin-2-yl)amino)pyridin-3-yl)piperazin-1-yl)ethyl)piperidin-4-yl)methyl)piperazin-1-yl)-4,6-difluoro-1-oxoisoindolin-2-yl)piperidine-2,6-dione trihydrochloride]",IC50,CDK4/CyclinD3,17.6 nM
same,IC50,CDK6/CyclinD3,9.84 nM
same,IC50,CDK9,1560 nM
same,IC50,"[1]; Homo sapiens, COLO 205, 72 h",68.8 nM
same,IC50,"[2]; Homo sapiens, MCF7, 72 h",442 nM
"CC(=O)c1c(C)c2cnc(Nc3ccc(N4CCN(CCN5CCN(c6c(F)cc7c(c6F)CN(C6CCC(=O)NC6=O)C7=O)CC5)CC4)cn3)nc2n(C2CCCC2)c1=O.Cl.Cl (centres unmarked) [Compound 23, 3-(5-(4-(2-(4-(6-((6-acetyl-8-cyclopentyl-5-methyl-7-oxo-7,8-dihydropyrido[2,3-d]pyrimidin-2-yl)amino)pyridin-3-yl)piperazin-1-yl)ethyl)piperazin-1-yl)-4,6-difluoro-1-oxoisoindolin-2-yl) piperidine-2,6-dione dihydrochloride]",IC50,CDK4/CyclinD3,48.8 nM
same,IC50,CDK6/CyclinD3,22.1 nM
same,IC50,CDK9,4580 nM
same,IC50,[2]; dihydrochloride,13.5 nM
same,inhibitory effect on human breast cancer MCF-7 cells (in words),[2],relatively good inhibitory effects
"Cc1nc2c(F)cc(-c3nc(Nc4ccc(CN5CCN(CCN6CCN(c7ccc8c(c7)CN(C7CCC(=O)NC7=O)C8=O)CC6)CC5)cn4)ncc3F)cc2n1C(C)C (centres unmarked) [Compound 12, 3-(5-(4-(2-(4-((6-((5-fluoro-4-(4-fluoro-1-isopropyl-2-methyl-1H-benzo[d]imidazol-6-yl)pyrimidin-2-yl)amino)pyridin-3-yl)methyl)piperazin-1-yl)ethyl)piperazin-1-yl)-1-oxoisoindolin-2-yl) piperidine-2,6-dione trihydrochloride]",IC50,CDK4/CyclinD3,13 nM
same,IC50,CDK6/CyclinD3,23.2 nM
same,IC50,CDK2,1030 nM
same,IC50,CDK9,688 nM
"COc1c(N2CCN(CCN3CCN(c4ccc(Nc5ncc6c(C)c(C(C)=O)c(=O)n(C7CCCC7)c6n5)nc4)CC3)CC2)ccc2c1CN(C1CCC(=O)NC1=O)C2=O (centres unmarked) [Compound 18, 3-(5-(4-(2-(4-(6-((6-acetyl-8-cyclopentyl-5-methyl-7-oxo-7,8-dihydropyrido[2,3-d]pyrimidin-2-yl)amino)pyridin-3-yl)piperazin-1-yl)ethyl)piperazin-1-yl)-4-methoxy-1-oxoisoindolin-2-yl)piperidine-2,6-dione]",IC50,CDK4/CyclinD3,99.5 nM
same,IC50,CDK6/CyclinD3,37.8 nM
same,IC50,CDK9,> 10000 nM
same,IC50,[1],133 nM
same,IC50,"[2]; Homo sapiens, MCF7, 72 h",> 10000 nM
"CC(=O)c1c(C)c2cnc(Nc3ccc(N4CCN(CCN5CCN(c6cc7c(cc6F)C(=O)N(C6CCC(=O)NC6=O)C7)CC5)CC4)cn3)nc2n(C2CCCC2)c1=O.Cl.Cl (centres unmarked) [Compound 27, 3-(5-(4-(2-(4-(6-((6-acetyl-8-cyclopentyl-5-methyl-7-oxo-7,8-dihydropyrido[2,3-d]pyrimidin-2-yl)amino)pyridin-3-yl)piperazin-1-yl)ethyl)piperazin-1-yl)-6-fluoro-1-oxoisoindolin-2-yl)piperidine-2,6-dione dihydrochloride]",IC50,CDK4/CyclinD3,45.4 nM
same,IC50,CDK6/CyclinD3,29.6 nM
same,IC50,CDK9,> 10000 nM
same,IC50,"[2]; Homo sapiens, MCF7, 72 h",71.6 nM
same,inhibitory effect on human breast cancer MCF-7 cells (in words),[2],relatively good inhibitory effects
